Key:
[1] = test system: patient with chronic nasal congestion; conditions: aqueous solution 1.00 mg/ml with salicylic acid 0.5 mg/ml, two drops in each nostril, three or four times a day, follow-up one month later
From the text: The patient also complained of frequent headaches in the forehead region.
The dose was repeated three or four times a day. […] It was felt by the clinician that the possible causative agent/s for the chronic nasal congestion may have been external environment factors such as cold, dust, air pollution, second-hand cigarette smoke and/or seasonal allergens such as pollens.

[2] = test system: patient with nose bleeding and atrophy of the nasal cavity mucous membranes; conditions: person, aqueous solution 2.0 mg/ml with salicylic acid 0.5 mg/ml, one to two drops, three to four times a day
Method: The patient was a person with a history of nose bleeding in small quantities and sensation of dryness in the nose and eyes. The patient also reported a long history of joint pain, but no other remarkable antecedents.
The treatment for patient two began with an aqueous solution of (S)-(1-methyl-2-pyrrolidinyl)-pyridine at a concentration of 2.0 mg/ml and salicylic acid at a concentration of 0.5 mg/ml at a dose of one to two drops (about 50 μL per drop) followed by forced inhalation. The dose was repeated three to four times a day.

human cancer cells = conditions: experimental cultures of human cancer cells; concentration 5 mg/ml

`CN1CCC[C@H]1c1cccnc1` [(S)-(1-methyl-2-pyrrolidinyl)-pyridine] was tested. Which “patient-reported improvement of symptoms (100% being what the patient considered normal)” value [1] did it give?
Its value is 90%.

What about the “nasal bleeding (patient report)” value ([2]; follow-up one month later) of the same compound?
The value was “ceased”.

What about the “sensation of dryness in the nose and eyes (patient report)” value ([2]; since the first week of treatment) of the same compound?
Its value is “diminished markedly”.

What about the inhibition of proliferation (human cancer cells) of the same compound?
The inhibition of proliferation was 95%.

Source: US10639300B2, “Compositions and methods for treating nasal and paranasal mucosa diseases with nicotinic acetylcholine receptor agonists” (priority 2016, dated 2020)
